Data as given in publication PMC11413964, “Discovery of 1,3-disubstituted prop-2-en-1-one derivatives as inhibitors of neutrophilic inflammation via modulation of MAPK and Akt pathways” (Journal of Enzyme Inhibition and Medicinal Chemistry, 2024).

Tested on: not given
Assay: not given
Details: not given

| melting point [°C] | SMILES |
| --- | --- |
| 76 to 78 | COc1ccccc1C(=O)/C=C/c1ccc(Cl)cc1 [Compound 12a, (E)-3-(4-Chlorophenyl)-1-(2-methoxyphenyl)prop-2-en-1-one] |
| 133.1 | CC1(C(=O)/C=C/c2ccc([N+](=O)[O-])cc2)CC1 [Compound 2a, (E)-1-(1-Methylcyclopropyl)-3-(4-nitrophenyl)prop-2-en-1-one] |
| 189 to 191 | COc1ccc(C(=O)/C=C/c2ccc([N+](=O)[O-])cc2)cc1OC [Compound 8a, (E)-1-(3,4-Dimethoxyphenyl)-3-(4-nitrophenyl)prop-2-en-1-one] |
| 95.2 to 97.2 | COc1cccc(C(=O)/C=C/c2cc(F)cc(F)c2)c1 [Compound 24a, (E)-3-(3,5-Difluorophenyl)-1-(3-methoxyphenyl)prop-2-en-1-one] |
| 118.9 to 120 | O=C(/C=C/c1ccc([N+](=O)[O-])cc1)C1CC1 [Compound 1a, (E)-1-Cyclopropyl-3-(4-nitrophenyl)prop-2-en-1-one] |
| 85 to 86 | COc1ccc(C(=O)/C=C/c2ccc(OC)c(F)c2)c(OC)c1 [Compound 21, (E)-1-(2,4-Dimethoxyphenyl)-3-(3-fluoro-4-methoxyphenyl)prop-2-en-1-one] |
| 117 | COc1cccc(C(=O)/C=C/c2ccccc2Cl)c1 [Compound 18a, (E)-3-(2-Chlorophenyl)-1-(3-methoxyphenyl)prop-2-en-1-one] |

Further lines, the compound ahead of its results:

| SMILES | melting point [°C] |
| --- | --- |
| CC(C)(C)C(=O)/C=C/c1ccc(C#N)cc1 [Compound 9, (E)-4-(4,4-Dimethyl-3-oxopent-1-en-1-yl)benzonitrile] | 131 to 133 |
| Cc1ccc(/C=C/C(=O)C(C)(C)C)cc1F [Compound 18, (E)-1-(3-Fluoro-4-methylphenyl)-4,4-dimethylpent-1-en-3-one] | 70 to 71 |
| CC(C)(C)C(=O)/C=C/c1ccc(Br)cc1 [Compound 3, (E)-1-(4-Bromophenyl)-4,4-dimethylpent-1-en-3-one] | 101 |
| COc1ccccc1C(=O)/C=C/c1ccccc1Cl [Compound 17a, (E)-3-(2-Chlorophenyl)-1-(2-methoxyphenyl)prop-2-en-1-one] | 60 to 62 |
| CC(C)(C)C(=O)/C=C/c1ccc(C(F)(F)F)cc1 [Compound 4, (E)-4,4-Dimethyl-1-(4-(trifluoromethyl)phenyl)pent-1-en-3-one] | 70 to 71 |
| CC(C)(C)C(=O)/C=C/c1ccc(Cl)c(Cl)c1 [Compound 16, (E)-1-(3,4-Dichlorophenyl)-4,4-dimethylpent-1-en-3-one] | 94 to 96 |

Tested on: fMLF/cytochalasin B (CB)-activated human neutrophils
Assay: Elastase release in fMLF/CB-activated human neutrophils
Format: cell-based
Details: Homo sapiens, Neutrophil; 10 μM compound; fMLF/CB stimulation; mean ± SEM (n = 3–5)
Protocol: (§1) The study involving neutrophils was approved by the Institutional Review Board of Chang Gung Memorial Hospital under IRB number: 201902217A3 and was conducted in accordance with the principles of the Declaration of Helsinki. Healthy volunteers aged 20–35 years provided signed informed consents for blood collection. Isolation of neutrophils was done using dextran sedimentation, Ficoll-Hypaque density gradient centrifugation, and hypotonic haemolysis. For the anti-inflammatory studies, neutrophils were suspended in Hank’s balanced salt solution (HBSS) containing 1 mM Ca^2+ at a pH of 7.4[72].
Neutrophils were subsequently stimulated with fMLF (0.1 μM) and CB (0.5 μg/mL) for 13 min. […] LY294002 was used as a positive control.

| SMILES | inhibition at 10 µM [%] |
| --- | --- |
| COc1ccccc1C(=O)/C=C/c1ccc(Cl)cc1 [Compound 12a, (E)-3-(4-Chlorophenyl)-1-(2-methoxyphenyl)prop-2-en-1-one] | 62.2 ± 5.35 |
| CC(C)(C)C(=O)/C=C/c1ccc(C#N)cc1 [Compound 9, (E)-4-(4,4-Dimethyl-3-oxopent-1-en-1-yl)benzonitrile] | 3.76 ± 2.69 |
| CC1(C(=O)/C=C/c2ccc([N+](=O)[O-])cc2)CC1 [Compound 2a, (E)-1-(1-Methylcyclopropyl)-3-(4-nitrophenyl)prop-2-en-1-one] | 8.39 ± 2.25 |
| COc1ccc(C(=O)/C=C/c2ccc([N+](=O)[O-])cc2)cc1OC [Compound 8a, (E)-1-(3,4-Dimethoxyphenyl)-3-(4-nitrophenyl)prop-2-en-1-one] | 56.9 ± 3.22 |
| Cc1ccc(/C=C/C(=O)C(C)(C)C)cc1F [Compound 18, (E)-1-(3-Fluoro-4-methylphenyl)-4,4-dimethylpent-1-en-3-one] | 7.77 ± 0.8 |
| COc1cccc(C(=O)/C=C/c2cc(F)cc(F)c2)c1 [Compound 24a, (E)-3-(3,5-Difluorophenyl)-1-(3-methoxyphenyl)prop-2-en-1-one] | 37.1 ± 7.65 |
| CC(C)(C)C(=O)/C=C/c1ccc(Br)cc1 [Compound 3, (E)-1-(4-Bromophenyl)-4,4-dimethylpent-1-en-3-one] | 9.09 ± 2.01 |
| COc1ccccc1C(=O)/C=C/c1ccccc1Cl [Compound 17a, (E)-3-(2-Chlorophenyl)-1-(2-methoxyphenyl)prop-2-en-1-one] | 75.8 ± 6.19 |
| CC(C)(C)C(=O)/C=C/c1ccc(C(F)(F)F)cc1 [Compound 4, (E)-4,4-Dimethyl-1-(4-(trifluoromethyl)phenyl)pent-1-en-3-one] | 1.18 ± 0.98 |
| O=C(/C=C/c1ccc([N+](=O)[O-])cc1)C1CC1 [Compound 1a, (E)-1-Cyclopropyl-3-(4-nitrophenyl)prop-2-en-1-one] | 2.36 ± 3.3 |
| CC(C)(C)C(=O)/C=C/c1ccc(Cl)c(Cl)c1 [Compound 16, (E)-1-(3,4-Dichlorophenyl)-4,4-dimethylpent-1-en-3-one] | 10.2 ± 0.59 |
| COc1ccc(C(=O)/C=C/c2ccc(OC)c(F)c2)c(OC)c1 [Compound 21, (E)-1-(2,4-Dimethoxyphenyl)-3-(3-fluoro-4-methoxyphenyl)prop-2-en-1-one] | 31.6 ± 5.88 |
| COc1cccc(C(=O)/C=C/c2ccccc2Cl)c1 [Compound 18a, (E)-3-(2-Chlorophenyl)-1-(3-methoxyphenyl)prop-2-en-1-one] | 31.3 ± 7.29 |

Same assay, conditions: Homo sapiens, Neutrophil; fMLF/CB stimulation; mean ± SEM (n = 3–5)

| IC50 [µM] | SMILES |
| --- | --- |
| 7.56 ± 1.05 | COc1ccccc1C(=O)/C=C/c1ccc(Cl)cc1 [Compound 12a, (E)-3-(4-Chlorophenyl)-1-(2-methoxyphenyl)prop-2-en-1-one] |
| 8.31 ± 0.78 | COc1ccc(C(=O)/C=C/c2ccc([N+](=O)[O-])cc2)cc1OC [Compound 8a, (E)-1-(3,4-Dimethoxyphenyl)-3-(4-nitrophenyl)prop-2-en-1-one] |
| 5.36 ± 0.67 | COc1ccccc1C(=O)/C=C/c1ccccc1Cl [Compound 17a, (E)-3-(2-Chlorophenyl)-1-(2-methoxyphenyl)prop-2-en-1-one] |

Tested on: fMLF/cytochalasin B (CB)-activated human neutrophils
Assay: Superoxide anion generation (ferricytochrome c reduction) in fMLF/CB-activated human neutrophils
Format: cell-based
Details: Neutrophil, 10 μM compound, fMLF/CB stimulation, mean ± SEM (n = 3–5)
Protocol: as §1
The reduction of ferricytochrome c was utilised to measure the production of SO anions in activated human neutrophils. […] The neutrophils were then stimulated with fMLF (0.1 μM) and CB (1 μg/mL) for 13 min. […] LY294002 was used as a positive control.

| SMILES | inhibition at 10 µM [%] |
| --- | --- |
| COc1ccccc1C(=O)/C=C/c1ccc(Cl)cc1 [Compound 12a, (E)-3-(4-Chlorophenyl)-1-(2-methoxyphenyl)prop-2-en-1-one] | 93.8 ± 3.02 |
| CC(C)(C)C(=O)/C=C/c1ccc(C#N)cc1 [Compound 9, (E)-4-(4,4-Dimethyl-3-oxopent-1-en-1-yl)benzonitrile] | 20.9 ± 5.55 |
| CC1(C(=O)/C=C/c2ccc([N+](=O)[O-])cc2)CC1 [Compound 2a, (E)-1-(1-Methylcyclopropyl)-3-(4-nitrophenyl)prop-2-en-1-one] | 8.75 ± 5.03 |
| COc1ccc(C(=O)/C=C/c2ccc([N+](=O)[O-])cc2)cc1OC [Compound 8a, (E)-1-(3,4-Dimethoxyphenyl)-3-(4-nitrophenyl)prop-2-en-1-one] | 81 ± 2.57 |
| Cc1ccc(/C=C/C(=O)C(C)(C)C)cc1F [Compound 18, (E)-1-(3-Fluoro-4-methylphenyl)-4,4-dimethylpent-1-en-3-one] | 31.3 ± 4.71 |
| COc1cccc(C(=O)/C=C/c2cc(F)cc(F)c2)c1 [Compound 24a, (E)-3-(3,5-Difluorophenyl)-1-(3-methoxyphenyl)prop-2-en-1-one] | 3.12 ± 5.02 |
| CC(C)(C)C(=O)/C=C/c1ccc(Br)cc1 [Compound 3, (E)-1-(4-Bromophenyl)-4,4-dimethylpent-1-en-3-one] | 25 ± 2.48 |
| COc1ccccc1C(=O)/C=C/c1ccccc1Cl [Compound 17a, (E)-3-(2-Chlorophenyl)-1-(2-methoxyphenyl)prop-2-en-1-one] | 99.05 ± 0.64 |
| CC(C)(C)C(=O)/C=C/c1ccc(C(F)(F)F)cc1 [Compound 4, (E)-4,4-Dimethyl-1-(4-(trifluoromethyl)phenyl)pent-1-en-3-one] | 11.7 ± 5.39 |
| O=C(/C=C/c1ccc([N+](=O)[O-])cc1)C1CC1 [Compound 1a, (E)-1-Cyclopropyl-3-(4-nitrophenyl)prop-2-en-1-one] | 20.5 ± 4.05 |
| CC(C)(C)C(=O)/C=C/c1ccc(Cl)c(Cl)c1 [Compound 16, (E)-1-(3,4-Dichlorophenyl)-4,4-dimethylpent-1-en-3-one] | 16.5 ± 4.67 |
| COc1ccc(C(=O)/C=C/c2ccc(OC)c(F)c2)c(OC)c1 [Compound 21, (E)-1-(2,4-Dimethoxyphenyl)-3-(3-fluoro-4-methoxyphenyl)prop-2-en-1-one] | 17.1 ± 3.58 |
| COc1cccc(C(=O)/C=C/c2ccccc2Cl)c1 [Compound 18a, (E)-3-(2-Chlorophenyl)-1-(3-methoxyphenyl)prop-2-en-1-one] | 47.6 ± 5.41 |

Same assay, conditions: Neutrophil, fMLF/CB stimulation, mean ± SEM (n = 3–5)

| IC50 [µM] | SMILES |
| --- | --- |
| 3.47 ± 0.6 | COc1ccccc1C(=O)/C=C/c1ccc(Cl)cc1 [Compound 12a, (E)-3-(4-Chlorophenyl)-1-(2-methoxyphenyl)prop-2-en-1-one] |
| 2.72 ± 0.35 | COc1ccc(C(=O)/C=C/c2ccc([N+](=O)[O-])cc2)cc1OC [Compound 8a, (E)-1-(3,4-Dimethoxyphenyl)-3-(4-nitrophenyl)prop-2-en-1-one] |
| 2.95 ± 0.4 | COc1ccccc1C(=O)/C=C/c1ccccc1Cl [Compound 17a, (E)-3-(2-Chlorophenyl)-1-(2-methoxyphenyl)prop-2-en-1-one] |

Tested on: fMLF/cytochalasin B (CB)-activated human neutrophils
Assay: as above
Format: cell-based
Details: 10 μM compound; cytochalasin B only

| SMILES | Induction of superoxide anion production |
| --- | --- |
| O=C(/C=C/c1ccc(Cl)cc1)c1ccc(-c2ccccc2)cc1 [Compound 11a, (E)-1-([1,1′-Biphenyl]-4-yl)-3-(4-chlorophenyl)prop-2-en-1-one] | an inducer rather than an inhibitor |
